According to patent US20060046976A1, “Method for increasing the bone mineral density and bone micro-architecture or connectivity of a mammal using N-acylated glucosamines” (priority 2004, published 2006):

Tests used:
[1] = test system: Insulin-like Growth factor I (IGF-1); assay: Plasma IGF-1 concentration by commercial immunological method; type: in vivo, rat; conditions: end of 6 months; ovariectomised GlcNBu fed rats compared to GlcNBu fed non-ovariectomised rats; p=0.044
Method: (§1) Sixteen ovariectomised rats (Charles River Laboratories), approximately 200 g in weight, were randomized into two groups. The control group received 200 mg of glucose, by mouth as single daily doses and the GlcNBu-treated group received 200 mg of GlcNBu by mouth, as single daily doses, for a total period of six (6) months. A similar group of non-ovariectomised animals was fed with GlcNBu or glucose at the same doses. The feeding of the compounds was done in small amounts of peanut butter which was very acceptable to the rats, which were allowed free access to water and rat chow. The animals had the BMDs of the femurs (total or global BMD) and the lumbar spines were estimated at baseline and then at, approximately 2, 4 and 6 months. Consistent position of the femurs was assured with a pre-determined grid. A Hologic 4500 DXA machine, with small animal software, was employed for the study. The animals were lightly anesthetized for each measurement.
(§2) At the end of the experiment, the animals were sacrificed, plasma was collected by cardiac puncture, and the femurs removed, fully dissected from adherent tissue and the wet weight was determined. The concentrations of Insulin-like Growth factor I (IGF-1) in the plasma, obtained at the end of the experiment, were determined by a commercial immunological method.

[2] = test system: non-ovariectomised animals; assay: BMD by DXA in non-ovariectomised rats fed GlcNBu; type: in vivo, rat; conditions: 200 mg GlcNBu daily, not statistically significant, data not shown
Method: as §1

ovariectomised rats = assay: Wet weight of femurs, ovariectomised rats; type: in vivo, rat; conditions: ovariectomised animals, oral feeding of GlcNBu, 6 months
Method: as §1, §2

SCW-arthritis rats = assay: Three-dimensional isosurface of tibia (bone erosion), SCW-arthritis rats; type: in vivo, Lewis type rats; conditions: GlcNBu treated, especially high dose
From the text: In this experiment performed and described herein, there were four groups of Lewis type rats, consisting of eight (8) animals in each group. Lewis type rats had experimental arthritis induced by a single intra-peritoneal injection of streptococcal cell wall antigen (SCW). This type of arthritis has an acute and chronic phase and affects mostly the distal joints in the hind limbs of the animals, and, less so, the knees and hips. Groups 1-3, inclusive, had inflammatory arthritis induced. The compound used in the experiment was used to supplement normal rat chow feed on a daily basis. Feed and water were unrestricted. […] All the dissected femurs and tibiae were scanned with dual energy x-ray absorptiometry (DXA) were measured at the distal femur, and proximal tibia using a user defined region of interest (ROI). • Micro-CT imaging protocol. […] The reconstructed tibia images were analyzed with MicroView 2.0 software (GE Healthcare, London, ON) in two and three dimensions. • Three-dimensional trabecular bone measurements. […] On 3D analysis, the tissue volume (3D-TV, mm3) and trabecular bone volume (3D-BV, mm3) were measured directly, and the fractional trabecular bone volume (3D-BV/TV, %) was calculated. […]

[3] = test system: non-ovariectomised animals; assay: Wet weight of femurs, non-ovariectomised rats; type: in vivo, rat; conditions: oral feeding of GlcNBu, 6 months
Method: as §1, §2

CCCC(=O)N[C@H]1C(O)O[C@H](CO)[C@@H](O)[C@@H]1O (stereo partly drawn) [GlcNBu, N-butyryl-D-glucosamine]
plasma IGF-1 concentration [1]: significant difference | BMD at the sites measured vs glucose-fed animals [2]: higher trends in the BMD | femoral wet weight (ovariectomised rats): increases femoral wet weight | bone erosion at the joint margin (isosurfaces) (SCW-arthritis rats): effectively protects bone from further erosion | femoral wet weight [3]: increases femoral wet weight
